Reference: US8987195B2 (priority 2012, dated 2015)
Like-named read-outs stand apart in the source and are kept apart here.

How the values were obtained:
HCV genotype 1b replicon = experiment: HCV replicon assay, genotype 1b replicon EC50; type: cell-based, Hepatitis C virus; conditions: Hepatitis C virus, read-out: EC50 [gt-1b]
Summary of the method: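 Replicon cells (Neo^r, some luciferase:Neo^r fusion); G418 removed at plating; compound dilution series, 24-48 h. Readout: RNA by 32P-probe hybridization/protection or TaqMan, normalized to cyclophilin A RNA, or luciferase. EC50 vs DMSO control, 4-parameter fit.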

[1] = molecular target: HCV NS3/4A protease genotype 1b (Hepatitis C virus genotype 1b, UniProt P26663); experiment: HCV NS3/4A protease time-resolved fluorescence (TRF) assay, Ki against genotype 1b; type: biochemical
Summary of the method: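 Ki was converted from fitted IC50 using IC50=Ki(1+[S]/KM) and 25 nM substrate. Protease (genotype 1b 0.2 nM, A156T 0.4 nM, 3a 0.025 nM) and compound were pre-mixed 30 min in pH 7.5 HEPES/NaCl/glycerol/DTT buffer. Cleavage then proceeded 2.5 h at room temperature, detected by time-resolved europium fluorescence (340/615 nm).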

[2] = IC50 [gt-1b] (nM), NS3/4A genotype 1b, enzyme 0.2 nM
[3] = IC50 [gt-1b], NS3/4A protease TRF assay, genotype 1b enzyme 0.2 nM

## COc1ccc2nc(C(F)(F)F)c3c(c2c1)[C@@H](N1CCOCC1)C[C@]1(C[C@H]2C(=O)N[C@]4(C(=O)NS(=O)(=O)C5(C)CC5)C[C@H]4/C=C\CCCCC[C@H](NC(=O)OC(C)(C)C)C(=O)N2C1)O3 [Example 65, tert-Butyl((1′S,2R,6S,13aS,14aR,16aS,Z)-9′-methoxy-14a-(((1-methylcyclopropyl)sulfonyl)carbamoyl)-1′-morpholino-5,16-dioxo-5′-(trifluoromethyl) -1′,2′,3,5,6,7,8,9,10,11,13a,14,14a,15,16,16a-hexadecahydro-1H-spiro[cyclopropa[e]pyrrolo[1,2-a][1,4]diazacyclopentadecine-2,3′-pyrano[2,3-c]quinolin]-6-yl)carbamate]
HCV genotype 1b replicon; genotype 1b replicon
  EC50: 0.148 nM
[1]; [2]
  IC50: 0.011 nM

## CC(C)(C)COC(=O)N[C@H]1CCCCC/C=C\[C@@H]2C[C@@]2(C(=O)NS(=O)(=O)C2(C)CC2)NC(=O)[C@@H]2C[C@]3(CCc4c(c(C5CC5)nc5c(F)cccc45)O3)CN2C1=O [Example 192, 2,2-dimethylpropyl [(2R,6S,12Z,13aS,14aR,16aS)-5′-cyclopropyl-7′-fluoro-14a-{[(1-methylcyclopropyl)sulfonyl]carbamoyl}-5,16-dioxo-1,1′,2′,5,6,7,8,9,10,11,13a,14,14a,15,16,16a-hexadecahydrospiro[cyclopropa[e]pyrrolo[1,2-a][1,4]diazacyclopentadecine-2,3′-pyrano[2,3-c]quinolin]-6-yl]carbamate]
HCV genotype 1b replicon; genotype 1b replicon
  EC50: 9.61 nM
[1]; [2]
  IC50: 0.019 nM

## CCCCNC(=O)N[C@H]1CCCCC/C=C\[C@@H]2C[C@@]2(C(=O)NS(=O)(=O)C2(C)CC2)NC(=O)[C@@H]2C[C@]3(CCc4c(c(C)nc5ccccc45)O3)CN2C1=O [Example 287, (2R,6S,12Z,13aS,14aR,16aS)-6-[(butylcarbamoyl)amino]-5′-methyl-N-[(1-methylcyclopropyl)sulfonyl]-5,16-dioxo-1,1′,2′,6,7,8,9,10,11,13a,14,15,16,16a-tetradecahydrospiro[cyclopropa[e]pyrrolo[1,2-a][1,4]diazacyclopentadecine-2,3′-pyrano[2,3-c]quinoline]-14a(5H)-carboxamide]
HCV genotype 1b replicon; genotype 1b replicon, HCOOH salt
  EC50: 23 nM
[1]; IC50 [gt-1b] (nM), NS3/4A genotype 1b, enzyme 0.2 nM, HCOOH salt
  IC50: 0.013 nM

## Cc1nc2ccccc2c2c1O[C@]1(CC2)C[C@H]2C(=O)N[C@]3(C(=O)NS(=O)(=O)C4(C)CC4)C[C@H]3/C=C\CCCCC[C@H](NC(=O)OCC(F)(F)F)C(=O)N2C1 [Example 129, 2,2,2-trifluoroethyl [(2R,6S,12Z,13aS,14aR,16aS)-5′-methyl-14a-{[(1-methylcyclopropyl)sulfonyl]carbamoyl}-5,16-dioxo-1,1′,2′,5,6,7,8,9,10,11,13a,14,14a,15,16,16a-hexadecahydrospiro[cyclopropa[e]pyrrolo[1,2-a][1,4]diazacyclopentadecine-2,3′-pyrano[2,3-c]quinolin]-6-yl]carbamate]
HCV genotype 1b replicon; genotype 1b replicon
  EC50: 2.11 nM
[1]; [2]
  IC50: 0.011 nM

## CCc1nc2ccc(OC)cc2c2c1O[C@]1(C[C@H]2F)C[C@H]2C(=O)N[C@]3(C(=O)NS(=O)(=O)C4(C)CC4)C[C@H]3/C=C\CCCCC[C@H](NC(=O)OCC(C)(C)C)C(=O)N2C1 [Example 36, Neopentyl((1′R,2S,6S,13aS,14aR,16aS,Z)-5′-ethyl-1′-fluoro-9′-methoxy-14a-(((1-methylcyclopropyl)sulfonyl)carbamoyl)-5,16-dioxo-1′,2′,3,5,6,7,8,9,10,11,13a,14,14a, 15,16,16a-hexadecahydro-1H-spiro[cyclopropa[e]pyrrolo[1,2-a][1,4]diazacyclopentadecine-2,3′-pyrano[2,3-c]quinolin]-6-yl)carbamate]
HCV genotype 1b replicon; genotype 1b replicon
  EC50: 1.2 nM
[1]; [2]
  IC50: 0.009 nM

## Cc1nc2cc(F)c(F)cc2c2c1O[C@]1(CC2)C[C@H]2C(=O)N[C@]3(C(=O)NS(=O)(=O)C4(C)CC4)C[C@H]3/C=C\CCCCC[C@H](NC(=O)OC(C)(C)C(F)(F)F)C(=O)N2C1 [Example 381, 1,1,1-trifluoro-2-methylpropan-2-yl [(2R,6S,12Z,13aS,14aR,16aS)-8′,9′-difluoro-5′-methyl-14a-{[(1-methylcyclopropyl)sulfonyl]carbamoyl}-5,16-dioxo-1,1′,2′,5,6,7,8,9,10,11,13a,14,14a,15,16,16a-hexadecahydrospiro[cyclopropa[e]pyrrolo[1,2-a][1,4]diazacyclopentadecine-2,3′-pyrano[2,3-c]quinolin]-6-yl]carbamate]
HCV genotype 1b replicon; HCV replicon, genotype 1b
  EC50: 6.74 nM
[1]; [3]
  IC50: 0.04 nM

## COc1ccnc(N[C@H]2CCCCC/C=C\[C@@H]3C[C@@]3(C(=O)NS(=O)(=O)C3(C)CC3)NC(=O)[C@@H]3C[C@]4(CCc5c(c(C)nc6ccc(OC)cc56)O4)CN3C2=O)c1 [Example 432, (2R,6S,12Z,13aS,14aR,16aS)-9′-methoxy-6-[(4-methoxypyridin-2-yl)amino]-5′-methyl-N-[(1-methylcyclopropyl)sulfonyl]-5,16-dioxo-1,1′,2′,6,7,8,9,10,11,13a,14,15,16,16a-tetradecahydrospiro[cyclopropa[e]pyrrolo[1,2-a][1,4]diazacyclopentadecine-2,3′-pyrano[2,3-c]quinoline]-14a(5H)-carboxamide]
HCV genotype 1b replicon; HCV replicon, genotype 1b
  EC50: 7.5 nM
[1]; [3]
  IC50: 0.091 nM

## COc1ccc2c3c(c(C4CC4)nc2c1)O[C@]1(CC3)C[C@H]2C(=O)N[C@]3(C(=O)NS(=O)(=O)C4(C)CC4)C[C@H]3/C=C\CCCCC[C@H](NC(=O)OC3CCCC3)C(=O)N2C1 [Example 134, cyclopentyl [(2R,6S,12Z,13aS,14aR,16aS)-5′-cyclopropyl-8′-methoxy-14a-{[(1-methylcyclopropyl)sulfonyl]carbamoyl}-5,16-dioxo-1,1′,2′,5,6,7,8,9,10,11,13a,14,14a,15,16,16a-hexadecahydrospiro[cyclopropa[e]pyrrolo[1,2-a][1,4]diazacyclopentadecine-2,3′-pyrano[2,3-c]quinolin]-6-yl]carbamate]
HCV genotype 1b replicon; genotype 1b replicon, K+ salt
  EC50: 2.84 nM
[1]; IC50 [gt-1b] (nM), NS3/4A genotype 1b, enzyme 0.2 nM, K+ salt
  IC50: 0.014 nM

## Cc1nc2c(C(F)(F)F)cccc2c2c1O[C@]1(CC2)C[C@H]2C(=O)N[C@]3(C(=O)NS(=O)(=O)C4(C)CC4)C[C@H]3/C=C\CCCCC[C@H](NC(=O)OCC(C)C)C(=O)N2C1 [Example 113, 2-methylpropyl [(2R,6S,12Z,13aS,14aR,16aS)-5′-methyl-14a-{[(1-methylcyclopropyl)sulfonyl]carbamoyl}-5,16-dioxo-7′-(trifluoromethyl)-1,1′,2′,5,6,7,8,9,10,11,13a,14,14a,15,16,16a-hexadecahydrospiro[cyclopropa[e]pyrrolo[1,2-a][1,4]diazacyclopentadecine-2,3′-pyrano[2,3-c]quinolin]-6-yl]carbamate]
HCV genotype 1b replicon; genotype 1b replicon
  EC50: 3.95 nM
[1]; [2]
  IC50: 0.298 nM

## CC1(OC(=O)N[C@H]2CCCCC/C=C\[C@@H]3C[C@@]3(C(=O)NS(=O)(=O)C3(C)CC3)NC(=O)[C@@H]3C[C@]4(CCc5c(c(C6CC6)nc6c(F)cccc56)O4)CN3C2=O)CCCCC1 [Example 176, 1-methylcyclohexyl [(2R,6S,12Z,13aS,14aR,16aS)-5′-cyclopropyl-7′-fluoro-14a-{[(1-methylcyclopropyl)sulfonyl]carbamoyl}-5,16-dioxo-1,1′,2′,5,6,7,8,9,10,11,13a,14,14a,15,16,16a-hexadecahydrospiro[cyclopropa[e]pyrrolo[1,2-a][1,4]diazacyclopentadecine-2,3′-pyrano[2,3-c]quinolin]-6-yl]carbamate]
HCV genotype 1b replicon; genotype 1b replicon
  EC50: 2.26 nM
[1]; [2]
  IC50: 0.026 nM

## CC1(S(=O)(=O)NC(=O)[C@@]23C[C@H]2/C=C\CCCCC[C@H](NC(=O)OC2CCC2)C(=O)N2C[C@@]4(CCc5c(c(C6CC6)nc6c(F)cccc56)O4)C[C@H]2C(=O)N3)CC1 [Example 175, cyclobutyl [(2R,6S,12Z,13aS,14aR,16aS)-5′-cyclopropyl-7′-fluoro-14a-{[(1-methylcyclopropyl)sulfonyl]carbamoyl}-5,16-dioxo-1,1′,2′,5,6,7,8,9,10,11,13a,14,14a,15,16,16a-hexadecahydrospiro[cyclopropa[e]pyrrolo[1,2-a][1,4]diazacyclopentadecine-2,3′-pyrano[2,3-c]quinolin]-6-yl]carbamate]
HCV genotype 1b replicon; genotype 1b replicon
  EC50: 1.67 nM
[1]; [2]
  IC50: 0.028 nM

## COc1ccc2nc(C)c3c(c2c1)CC[C@]1(C[C@H]2C(=O)N[C@]4(C(=O)NS(=O)(=O)C5(C)CC5)C[C@H]4/C=C\CCCCC[C@H](NC(=O)OC(C(C)C)C(F)(F)F)C(=O)N2C1)O3 (stereo partly drawn) [Example 407, 1,1,1-trifluoro-3-methylbutan-2-yl [(2R,6S,12Z,13aS,14aR,16aS)-9′-methoxy-5′-methyl-14a-{[(1-methylcyclopropyl)sulfonyl]carbamoyl}-5,16-dioxo-1,1′,2′,5,6,7,8,9,10,11,13a,14,14a,15,16,16a-hexadecahydrospiro[cyclopropa[e]pyrrolo[1,2-a][1,4]diazacyclopentadecine-2,3′-pyrano[2,3-c]quinolin]-6-yl]carbamate]
HCV genotype 1b replicon; HCV replicon, genotype 1b, K+ salt
  EC50: 1.5 nM
[1]; IC50 [gt-1b], NS3/4A protease TRF assay, genotype 1b enzyme 0.2 nM, K+ salt
  IC50: 0.019 nM
